# The source made the active and inactive calls.
# Columns and labels:
# Format in all cases: functional
# [1] = target: Megakaryocyte-associated tyrosine-protein kinase (Homo sapiens, UniProt P42679);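 note: affinity measured as one member of a kinase panel (Navigating the Kinome) against MATK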
# [2] = target: Tyrosine-protein kinase JAK2 (Homo sapiens, UniProt O60674);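 note: JAK2 tested as one member of a kinase panel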
# [3] = target: Protein kinase C zeta type (Homo sapiens, UniProt Q05513);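 note: measured as one member of a broad kinase profiling panel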
# [4] = target: Serine/threonine-protein kinase PLK3 (Homo sapiens, UniProt Q9H4B4)
# [5] = target: Protein kinase C delta type (Homo sapiens, UniProt Q05655)
# Sequence of Protein kinase C delta type (Q05655 whole entry): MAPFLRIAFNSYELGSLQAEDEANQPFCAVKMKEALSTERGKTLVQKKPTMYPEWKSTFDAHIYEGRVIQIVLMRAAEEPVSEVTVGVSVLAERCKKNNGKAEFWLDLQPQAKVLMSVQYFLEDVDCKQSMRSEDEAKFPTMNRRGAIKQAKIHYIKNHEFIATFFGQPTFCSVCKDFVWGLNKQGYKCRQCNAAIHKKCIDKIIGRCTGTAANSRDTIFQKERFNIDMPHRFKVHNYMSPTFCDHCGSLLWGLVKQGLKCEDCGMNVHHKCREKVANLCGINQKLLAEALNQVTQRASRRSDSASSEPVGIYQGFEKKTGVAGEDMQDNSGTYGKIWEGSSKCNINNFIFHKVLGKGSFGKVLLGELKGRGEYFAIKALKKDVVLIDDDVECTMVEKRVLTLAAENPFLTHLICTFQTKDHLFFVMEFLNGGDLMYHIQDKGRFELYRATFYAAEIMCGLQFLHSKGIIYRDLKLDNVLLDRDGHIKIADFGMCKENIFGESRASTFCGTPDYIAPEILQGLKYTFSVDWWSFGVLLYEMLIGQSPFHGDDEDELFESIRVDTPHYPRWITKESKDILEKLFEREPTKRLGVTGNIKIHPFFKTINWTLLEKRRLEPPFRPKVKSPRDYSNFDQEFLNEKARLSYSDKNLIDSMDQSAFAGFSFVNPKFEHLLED
# [6] = target: Serine/threonine-protein kinase D3 (Homo sapiens, UniProt O94806);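 note: determined within a kinase panel screen, with PRKCN as the panel member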
# Sequence of Serine/threonine-protein kinase D3 (O94806 whole entry): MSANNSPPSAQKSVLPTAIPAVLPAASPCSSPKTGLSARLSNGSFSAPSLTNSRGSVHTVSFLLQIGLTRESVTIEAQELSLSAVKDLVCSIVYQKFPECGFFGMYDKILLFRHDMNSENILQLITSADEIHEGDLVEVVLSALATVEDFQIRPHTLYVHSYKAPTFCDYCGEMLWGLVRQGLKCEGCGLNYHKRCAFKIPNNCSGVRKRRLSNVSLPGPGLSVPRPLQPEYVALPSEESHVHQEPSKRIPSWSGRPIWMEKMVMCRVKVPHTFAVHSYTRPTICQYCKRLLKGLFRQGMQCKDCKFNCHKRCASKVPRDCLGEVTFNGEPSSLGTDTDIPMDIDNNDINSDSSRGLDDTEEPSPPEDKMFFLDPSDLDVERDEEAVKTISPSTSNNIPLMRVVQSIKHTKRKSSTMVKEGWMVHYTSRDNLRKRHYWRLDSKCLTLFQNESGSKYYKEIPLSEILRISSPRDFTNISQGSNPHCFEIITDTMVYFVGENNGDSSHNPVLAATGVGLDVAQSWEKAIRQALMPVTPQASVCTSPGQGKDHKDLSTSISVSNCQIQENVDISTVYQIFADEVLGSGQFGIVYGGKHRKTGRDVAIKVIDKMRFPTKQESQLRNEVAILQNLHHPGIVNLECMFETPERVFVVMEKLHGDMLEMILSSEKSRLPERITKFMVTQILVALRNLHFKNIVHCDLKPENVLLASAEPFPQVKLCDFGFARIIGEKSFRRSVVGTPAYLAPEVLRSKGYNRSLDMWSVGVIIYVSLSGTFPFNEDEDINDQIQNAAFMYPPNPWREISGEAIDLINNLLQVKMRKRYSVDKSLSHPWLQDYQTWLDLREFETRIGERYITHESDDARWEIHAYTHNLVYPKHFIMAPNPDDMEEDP
# [7] = target: Serine/threonine-protein kinase pim-1 (Homo sapiens, UniProt P11309)
# [8] = target: Cell division cycle 7-related protein kinase (Homo sapiens, UniProt O00311);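 note: value obtained from a kinome-wide kinase panel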
# Sequence of Cell division cycle 7-related protein kinase (O00311 whole entry): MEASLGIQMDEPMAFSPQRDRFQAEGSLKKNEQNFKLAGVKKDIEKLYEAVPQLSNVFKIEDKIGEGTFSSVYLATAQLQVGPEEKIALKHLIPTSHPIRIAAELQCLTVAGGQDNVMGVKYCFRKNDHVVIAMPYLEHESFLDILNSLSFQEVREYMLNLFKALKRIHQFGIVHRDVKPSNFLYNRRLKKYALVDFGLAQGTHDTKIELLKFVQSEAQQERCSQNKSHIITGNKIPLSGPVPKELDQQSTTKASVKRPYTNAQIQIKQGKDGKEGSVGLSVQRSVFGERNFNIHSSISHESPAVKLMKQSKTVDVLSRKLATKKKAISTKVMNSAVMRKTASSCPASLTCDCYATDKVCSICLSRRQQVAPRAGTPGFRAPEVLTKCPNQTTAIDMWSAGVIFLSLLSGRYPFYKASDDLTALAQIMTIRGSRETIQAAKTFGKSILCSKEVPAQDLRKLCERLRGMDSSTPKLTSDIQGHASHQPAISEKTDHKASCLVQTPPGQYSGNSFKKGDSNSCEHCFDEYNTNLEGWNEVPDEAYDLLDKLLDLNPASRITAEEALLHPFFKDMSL
# [9] = target: Serine/threonine-protein kinase PAK 4 (Homo sapiens, UniProt O96013);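 note: value obtained within a kinome profiling panel in which PAK4 was one of the panel members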
# Sequence of Serine/threonine-protein kinase PAK 4 (O96013 whole entry): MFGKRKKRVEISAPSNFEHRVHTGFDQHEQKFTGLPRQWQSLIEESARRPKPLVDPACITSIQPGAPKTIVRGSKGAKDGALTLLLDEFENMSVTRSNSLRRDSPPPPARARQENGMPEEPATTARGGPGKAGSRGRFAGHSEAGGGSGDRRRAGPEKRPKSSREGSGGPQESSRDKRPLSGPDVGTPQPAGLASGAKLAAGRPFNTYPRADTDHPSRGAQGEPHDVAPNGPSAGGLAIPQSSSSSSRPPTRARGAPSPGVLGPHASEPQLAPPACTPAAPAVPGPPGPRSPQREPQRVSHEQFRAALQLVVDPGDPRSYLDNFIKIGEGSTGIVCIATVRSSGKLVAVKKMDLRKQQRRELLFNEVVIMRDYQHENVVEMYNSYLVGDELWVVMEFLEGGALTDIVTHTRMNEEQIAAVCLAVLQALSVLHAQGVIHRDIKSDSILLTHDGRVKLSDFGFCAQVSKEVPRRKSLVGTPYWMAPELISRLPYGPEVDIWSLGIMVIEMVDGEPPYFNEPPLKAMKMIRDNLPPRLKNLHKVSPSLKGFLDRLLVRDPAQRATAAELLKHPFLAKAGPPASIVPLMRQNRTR
# [10] = target: Fibroblast growth factor receptor 1 (Homo sapiens, UniProt P11362)
# [11] = target: Casein kinase I isoform gamma-1 (Homo sapiens, UniProt Q9HCP0);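 note: measured as the CSNK1G1 member of a kinome profiling panel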
# Sequence of Casein kinase I isoform gamma-1 (Q9HCP0 whole entry, canonical isoform): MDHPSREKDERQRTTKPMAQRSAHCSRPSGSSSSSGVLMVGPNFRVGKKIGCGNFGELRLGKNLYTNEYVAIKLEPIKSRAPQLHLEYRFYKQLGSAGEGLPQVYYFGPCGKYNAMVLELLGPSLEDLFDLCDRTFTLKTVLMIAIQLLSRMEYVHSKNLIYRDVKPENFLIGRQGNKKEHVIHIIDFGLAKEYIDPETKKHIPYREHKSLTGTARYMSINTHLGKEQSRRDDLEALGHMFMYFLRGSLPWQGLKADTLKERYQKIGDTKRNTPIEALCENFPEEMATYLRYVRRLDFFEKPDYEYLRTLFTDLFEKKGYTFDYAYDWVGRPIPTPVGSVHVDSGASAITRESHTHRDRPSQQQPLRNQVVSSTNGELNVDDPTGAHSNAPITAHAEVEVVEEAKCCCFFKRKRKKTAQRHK
# [12] = target: Mitogen-activated protein kinase 9 (Homo sapiens, UniProt P45984);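 note: value from a kinome panel profiling assay, MAPK9 panel entry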
# Sequence of Mitogen-activated protein kinase 9 (P45984 whole entry): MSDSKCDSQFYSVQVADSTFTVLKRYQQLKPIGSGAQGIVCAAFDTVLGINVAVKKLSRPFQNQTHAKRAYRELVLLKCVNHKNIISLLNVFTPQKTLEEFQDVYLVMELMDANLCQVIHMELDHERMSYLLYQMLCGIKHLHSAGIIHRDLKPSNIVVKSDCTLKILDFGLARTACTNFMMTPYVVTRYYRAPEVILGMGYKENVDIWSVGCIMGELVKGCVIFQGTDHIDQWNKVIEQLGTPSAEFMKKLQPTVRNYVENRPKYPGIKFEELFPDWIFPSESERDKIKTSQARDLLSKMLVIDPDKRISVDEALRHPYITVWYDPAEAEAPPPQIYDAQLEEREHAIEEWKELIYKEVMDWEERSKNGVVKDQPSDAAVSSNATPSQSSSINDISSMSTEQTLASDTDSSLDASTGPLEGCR
# [13] = target: Testis-specific serine/threonine-protein kinase 1 (Homo sapiens, UniProt Q9BXA7)
# [14] = target: MAP/microtubule affinity-regulating kinase 3 (Homo sapiens, UniProt P27448);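 note: MARK3 affinity measured as one member of a kinome panel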
# [15] = target: High affinity nerve growth factor receptor (Homo sapiens, UniProt P04629);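 note: NTRK1 tested as one member of a kinome-wide profiling panel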
# [16] = target: Non-receptor tyrosine-protein kinase TYK2 (Homo sapiens, UniProt P29597)
# [17] = target: Proto-oncogene tyrosine-protein kinase Src (Homo sapiens, UniProt P12931);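 note: SRC entry within a kinome-wide kinase profiling panel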
# [18] = target: Hepatocyte growth factor receptor (Homo sapiens, UniProt P08581);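 note: kinase panel profiling across the kinome, with MET as the panel member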
# [19] = target: Serine/threonine-protein kinase Chk1 (Homo sapiens, UniProt O14757);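 note: measured as one member of a kinome-wide kinase profiling panel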
# [20] = target: Casein kinase I isoform delta (Homo sapiens, UniProt P48730);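 note: measured as one member (CSNK1D) of a kinome panel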
# [21] = target: Tyrosine-protein kinase ABL1 (Homo sapiens, UniProt P00519)
# [22] = target: Calcium/calmodulin-dependent protein kinase type II subunit beta (Homo sapiens, UniProt Q13554)
# [23] = target: Cyclin-dependent kinase 5 (Homo sapiens, UniProt Q00535);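 note: CDK5 measured as one member of a kinase profiling panel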
# [24] = target: Mitogen-activated protein kinase kinase kinase kinase 5 (Homo sapiens, UniProt Q9Y4K4);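 note: measured as one member of a kinome-spanning kinase panel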
# Sequence of Mitogen-activated protein kinase kinase kinase kinase 5 (Q9Y4K4 whole entry): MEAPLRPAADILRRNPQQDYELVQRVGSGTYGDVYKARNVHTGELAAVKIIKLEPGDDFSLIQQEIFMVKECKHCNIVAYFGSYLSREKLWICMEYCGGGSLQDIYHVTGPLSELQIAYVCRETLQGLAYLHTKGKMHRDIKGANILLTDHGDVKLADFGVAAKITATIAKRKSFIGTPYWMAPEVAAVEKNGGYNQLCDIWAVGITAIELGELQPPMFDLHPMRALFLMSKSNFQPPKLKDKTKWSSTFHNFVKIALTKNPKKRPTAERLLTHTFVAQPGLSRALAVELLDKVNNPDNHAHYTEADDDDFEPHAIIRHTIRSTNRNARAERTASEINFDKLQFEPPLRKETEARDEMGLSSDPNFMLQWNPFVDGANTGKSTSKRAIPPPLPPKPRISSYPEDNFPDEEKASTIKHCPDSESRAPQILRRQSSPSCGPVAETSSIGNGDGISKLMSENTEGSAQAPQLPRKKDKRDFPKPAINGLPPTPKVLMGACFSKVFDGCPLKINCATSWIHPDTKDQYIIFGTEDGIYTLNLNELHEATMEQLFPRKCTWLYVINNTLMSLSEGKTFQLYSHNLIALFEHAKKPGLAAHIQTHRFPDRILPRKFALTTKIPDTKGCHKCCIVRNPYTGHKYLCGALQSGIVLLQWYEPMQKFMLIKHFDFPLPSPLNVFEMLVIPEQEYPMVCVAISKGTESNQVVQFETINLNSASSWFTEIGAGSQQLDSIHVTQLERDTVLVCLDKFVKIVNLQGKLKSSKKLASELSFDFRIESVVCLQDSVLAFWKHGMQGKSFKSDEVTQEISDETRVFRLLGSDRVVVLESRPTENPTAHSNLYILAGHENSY
# [25] = target: Vascular endothelial growth factor receptor 3 (Homo sapiens, UniProt P35916);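 note: value from a kinome-wide profiling panel, with FLT4 as the panel member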
# [26] = target: Tyrosine-protein kinase Fer (Homo sapiens, UniProt P16591);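 note: FER tested as one member of a kinome panel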
# [27] = target: Homeodomain-interacting protein kinase 4 (Homo sapiens, UniProt Q8NE63)
# Sequence of Homeodomain-interacting protein kinase 4 (Q8NE63 whole entry): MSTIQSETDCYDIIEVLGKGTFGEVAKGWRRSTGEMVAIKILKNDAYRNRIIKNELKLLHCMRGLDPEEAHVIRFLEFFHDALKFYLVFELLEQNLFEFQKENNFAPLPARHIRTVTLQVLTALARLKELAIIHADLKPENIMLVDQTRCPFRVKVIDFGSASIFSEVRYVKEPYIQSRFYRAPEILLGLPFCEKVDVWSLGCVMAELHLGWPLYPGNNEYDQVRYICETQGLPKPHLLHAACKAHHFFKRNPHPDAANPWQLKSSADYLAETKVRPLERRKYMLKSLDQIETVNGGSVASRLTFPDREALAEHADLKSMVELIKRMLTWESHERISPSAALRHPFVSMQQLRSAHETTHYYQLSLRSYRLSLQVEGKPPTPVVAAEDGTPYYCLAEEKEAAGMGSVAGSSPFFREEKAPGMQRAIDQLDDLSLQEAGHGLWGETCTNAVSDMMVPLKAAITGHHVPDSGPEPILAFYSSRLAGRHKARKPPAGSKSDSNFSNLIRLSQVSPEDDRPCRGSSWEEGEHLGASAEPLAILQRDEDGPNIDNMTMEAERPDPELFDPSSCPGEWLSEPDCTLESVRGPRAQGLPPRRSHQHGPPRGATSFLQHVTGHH
# [28] = target: Serine/threonine-protein kinase pim-2 (Homo sapiens, UniProt Q9P1W9);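 note: value comes from a broad kinase panel profiling study in which PIM2 was one of the panel members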
# [29] = target: Serine/threonine-protein kinase DCLK1 (Homo sapiens, UniProt O15075);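 note: affinity for DCLK1 (listed as DCAMKL1) measured as one member of a kinome-wide kinase profiling panel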
# [30] = target: Serine/threonine-protein kinase Nek2 (Homo sapiens, UniProt P51955)
# [31] = target: Vascular endothelial growth factor receptor 1 (Homo sapiens, UniProt P17948);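 note: measured within a kinome-wide profiling panel, FLT1 as the panel member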
# [32] = target: Serine/threonine-protein kinase PLK1 (Homo sapiens, UniProt P53350);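 note: PLK1 measured as one member of a kinome-wide profiling panel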
# [33] = cytotoxicity toward DRD oncogenic fibroblasts, dose response, cell-based, non-viral oncogenic, luminescence (AID 1934); details: Homo sapiens
# [34] = Counterscreen for AddAB inhibitors: absorbance-based bacterial cell-based high throughput dose response assay for inhibitors of bacterial viability. [Related pubchem assays (depositor defined):AID435030, AID449728, AID449731, AID488942, AID488955, AID488956]
smiles,measurement,setting,value
CCn1c(-c2nonc2N)nc2cnc(Oc3cccc(NC(=O)c4ccc(OCCN5CCOCC5)cc4)c3)cc21 [GSK-269962A],Ki,[1],> 2 µM (inactive)
same,Ki,[2],> 1.58 µM (inactive)
same,Ki,[3],25.1 nM (active)
same,Ki,[4],> 7.94 µM (inactive)
same,Ki,[5],5.01 nM (active)
same,Ki,[6],2.51 µM (active)
same,Ki,[7],316 nM (active)
same,Ki,[8],79.4 nM (active)
same,Ki,[9],> 5.01 µM (inactive)
same,Ki,[10],> 5.01 µM (inactive)
same,Ki,[11],> 6.31 µM (inactive)
same,Ki,[12],> 3.98 µM (inactive)
same,Ki,[13],50.1 nM (active)
same,Ki,[14],1.58 µM (active)
same,Ki,[15],> 2.51 µM (inactive)
same,Ki,[16],> 2 µM (inactive)
same,Ki,[17],> 2 µM (inactive)
same,Ki,[18],> 3.16 µM (inactive)
same,Ki,[19],> 7.94 µM (inactive)
same,Ki,[20],> 7.94 µM (inactive)
same,Ki,[21],> 631 nM (inactive)
same,Ki,[22],7.94 µM (active)
same,Ki,[23],> 10 µM (inactive)
same,Ki,[24],1.58 µM (active)
same,Ki,[25],3.16 µM (active)
same,Ki,[26],> 1.58 µM (inactive)
same,Ki,[27],5.01 µM (active)
same,Ki,[28],> 1.58 µM (inactive)
same,Ki,[29],> 10 µM (inactive)
same,Ki,[30],> 10 µM (inactive)
same,Ki,[31],> 398 nM (inactive)
same,Ki,[32],> 7.94 µM (inactive)
COc1ccc(-c2nnc(NC(=O)c3ccc(F)cc3)o2)cc1,EC50,[33],38.1 µM (active)
same,IC50,[34],> 118 µM (inactive)

# — ChEMBL document CHEMBL1201862, “PubChem BioAssay data set” (2004)
